From patent publication US5506244A, “Cyclic amino acid derivatives” (Ciba-Geigy Corporation, priority 1994, dated 1996)
Where two headings read alike, the source gives them in different places.

Legend:
[1] = molecular target: T1, neutral endopeptidase (NEP, EC 3.4.24.11) (Rattus norvegicus, UniProt P07861); assay: in vitro inhibition of neutral endopeptidase (GAAP assay); type: biochemical; conditions: GAAP 500 μM, rat kidney cortex membranes, pH 7.4, 25° C., 10 minutes
T1 construct: rat kidney cortex membranes prepared by method of Maeda; from tissue; host or cells: rat kidney cortex membranes
T1 sequence (P07861 1-750): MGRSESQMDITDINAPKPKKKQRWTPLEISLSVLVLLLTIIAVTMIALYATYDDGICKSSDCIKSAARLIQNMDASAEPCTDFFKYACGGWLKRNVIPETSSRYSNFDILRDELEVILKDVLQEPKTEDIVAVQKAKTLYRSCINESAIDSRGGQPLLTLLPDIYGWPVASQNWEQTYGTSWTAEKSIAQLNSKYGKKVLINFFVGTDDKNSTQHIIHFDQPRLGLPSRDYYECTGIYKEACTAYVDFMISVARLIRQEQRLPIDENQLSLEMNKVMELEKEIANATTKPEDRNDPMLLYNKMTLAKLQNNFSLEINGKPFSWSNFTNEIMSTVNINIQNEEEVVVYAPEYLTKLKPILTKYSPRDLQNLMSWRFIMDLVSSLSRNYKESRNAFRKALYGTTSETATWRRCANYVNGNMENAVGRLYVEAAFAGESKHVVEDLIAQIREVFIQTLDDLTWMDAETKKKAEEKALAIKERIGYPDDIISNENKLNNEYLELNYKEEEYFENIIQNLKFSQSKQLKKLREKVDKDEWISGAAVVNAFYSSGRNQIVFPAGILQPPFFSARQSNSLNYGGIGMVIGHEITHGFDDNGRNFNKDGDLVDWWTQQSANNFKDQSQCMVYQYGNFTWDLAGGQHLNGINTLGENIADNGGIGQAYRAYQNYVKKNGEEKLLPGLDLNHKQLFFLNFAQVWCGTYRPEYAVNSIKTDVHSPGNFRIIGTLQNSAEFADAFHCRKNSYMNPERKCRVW
Description: (§1) In vitro testing is most appropriate for the free carboxylic acids of the invention. The test compound is dissolved in dimethyl sulfoxide, ethanol, or 0.25 M sodium bicarbonate solution, and the solution is diluted with buffer to the desired concentration.
The in vitro inhibition of neutral endopeptidase (NEP, EC 3.4.24.11 ) can be determined as follows:
Neutral endopeptidase 3.4.24.11 activity is determined by the hydrolysis of the substrate glutaryl-Ala-Ala-Phe-2-naphthylamide (GAAP) using a modified procedure of Orlowski and Wilk (1981). The incubation mixture (total volume 125 μl) contains 4.2 μg of protein (rat kidney cortex membranes prepared by method of Maeda et at, 1983), 50 mM iris buffer, pH 7.4 at 25° C., 500 μM substrate (final concentration), and leucine aminopeptidase M (2.5 μg). The mixture is incubated for 10 minutes at 25° C. and 100 μl of fast garnet (250 μg fast garnet/ml of 10% Tween 20 in 1 M sodium acetate, pH 4.2) is added. Enzyme activity is measured spectrophotometrically at 540 nm. One unit of NEP 24.11 activity is defined as 1 nmol of 2-naphthylamine released per minute at 25° C at pH 7.4. IC50 values are determined, i.e. the concentration of test compound required for 50% inhibition of the release of 2-naphthylamine.

[2] = molecular target: T2, angiotensin-converting enzyme (ACE) (Oryctolagus cuniculus, UniProt P12822); assay: in vitro inhibition of angiotensin-converting enzyme (ACE); type: biochemical
T2 sequence (P12822 34-1310): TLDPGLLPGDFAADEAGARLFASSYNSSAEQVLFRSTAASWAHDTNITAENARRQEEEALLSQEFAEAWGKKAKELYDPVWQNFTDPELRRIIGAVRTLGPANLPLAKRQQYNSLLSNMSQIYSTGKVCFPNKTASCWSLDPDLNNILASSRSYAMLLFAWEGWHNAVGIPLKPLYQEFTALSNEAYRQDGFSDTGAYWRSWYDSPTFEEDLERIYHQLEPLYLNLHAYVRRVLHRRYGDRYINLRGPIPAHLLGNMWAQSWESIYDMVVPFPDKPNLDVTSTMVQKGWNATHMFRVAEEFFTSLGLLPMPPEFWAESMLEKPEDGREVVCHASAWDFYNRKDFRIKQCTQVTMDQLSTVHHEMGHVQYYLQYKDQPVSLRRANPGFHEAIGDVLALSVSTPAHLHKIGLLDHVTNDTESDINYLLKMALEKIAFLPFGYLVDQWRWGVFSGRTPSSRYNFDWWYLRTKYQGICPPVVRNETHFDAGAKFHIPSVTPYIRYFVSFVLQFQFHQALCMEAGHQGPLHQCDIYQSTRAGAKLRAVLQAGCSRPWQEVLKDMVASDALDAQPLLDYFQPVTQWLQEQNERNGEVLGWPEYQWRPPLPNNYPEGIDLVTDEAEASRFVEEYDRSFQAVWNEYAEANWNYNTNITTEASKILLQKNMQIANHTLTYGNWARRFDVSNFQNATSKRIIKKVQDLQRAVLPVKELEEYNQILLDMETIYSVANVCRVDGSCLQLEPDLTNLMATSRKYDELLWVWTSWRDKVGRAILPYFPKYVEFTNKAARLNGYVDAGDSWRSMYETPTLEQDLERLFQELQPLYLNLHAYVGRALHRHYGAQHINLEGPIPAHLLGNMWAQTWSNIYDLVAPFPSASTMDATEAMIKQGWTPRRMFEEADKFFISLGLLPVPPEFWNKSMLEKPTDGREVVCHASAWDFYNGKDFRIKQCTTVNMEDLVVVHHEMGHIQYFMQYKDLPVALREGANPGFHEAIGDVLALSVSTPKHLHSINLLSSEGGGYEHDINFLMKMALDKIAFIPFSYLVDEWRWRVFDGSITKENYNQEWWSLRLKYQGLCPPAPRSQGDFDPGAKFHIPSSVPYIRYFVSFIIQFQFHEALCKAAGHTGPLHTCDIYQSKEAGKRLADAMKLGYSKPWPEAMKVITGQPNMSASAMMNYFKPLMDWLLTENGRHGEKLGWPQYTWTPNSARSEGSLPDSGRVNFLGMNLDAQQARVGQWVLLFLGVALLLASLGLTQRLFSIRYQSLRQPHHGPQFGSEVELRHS
Description: as §1
The buffer for the ACE assay is 300 mM NaCl, 100 mM KH2 PO4 (pH 8.3). The reaction is initiated by the addition of 100 μl of hippuryl-histidyl-leucine (2 mg/ml) to tubes containing enzyme and drug in a volume of 150 μl and tubes are incubated for 30 minutes at 37° C. The reaction is terminated by the addition of 0.75 ml 0.6 N NaOH. 100 μl of freshly prepared 0-pthaldehyde solution (2 mg/ml in methanol) is added to the tubes, the contents are mixed and allowed to stand at room temperature. After 10 minutes, 100 μl of 6 N HCl is added. The tubes are centrifuged and the supernatant optical density is read at 360 nm.

[3] = test system: Angiotensin I induced pressor response; assay: inhibition of the angiotensin I induced pressor response in normotensive rats; type: in vivo, rat; conditions: 10 mg/Kg p.o., angiotensin I 300 ng/kg i.v.
Description: The in vivo test for intravenously administered compounds is performed with male, normotensive rats, which are anesthetized with sodium metofan. A femoral artery and femoral vein are cannulated respectively for direct blood pressure measurement on i.v. administration of angiotensin I and i.v. or p.o. administration of a compound of this invention. After the basal blood pressure is stabilized, pressor responses to 3 challenges of 300 ng/kg angiotensin I i.v., at 15 minute intervals, are obtained. Such pressure responses are usually again obtained at 15, 30, 60 and 90 minutes, and then every hour up to 6 hours after i.v. or p.o. administration of the compound to be tested, and compared with the initial responses. Any observed decrease of said pressor response is an indication of Angiotensin I converting enzyme inhibition.

## CC(C)[C@H](S)C(=O)NC1(C(=O)N[C@@H](Cc2ccc(O)cc2)C(=O)O)CCCC1 [Example 2a]
[1]
  IC50: ~2 nM
[2]; hippuryl-histidyl-leucine substrate, pH 8.3, 37° C., 30 minutes, read-out: IC50 in the ACE in vitro assay
  IC50: ~7 nM

## COc1ccc(C[C@H](NC(=O)C2(NC(=O)[C@@H](S)C(C)C)CCCC2)C(=O)O)cc1 [Example 2i]
[1]
  IC50: ~2.2 nM
[2]
  IC50: ~19 nM

## CCOC(=O)[C@H](Cc1ccc(O)cc1)NC(=O)C1(NC(=O)[C@@H](SC(C)=O)C(C)C)CCCC1 [1 (b), N-[[1-[(2(S)-acetylmercapto-3-methyl-1-oxobutyl)amino]-1-cyclopentyl]carbonyl]-L-tyrosine ethyl ester]
[3]
  duration of inhibition of the Angiotensin I induced pressor response: six
